Where “and” joins values, the source holds several entries; their conditions need not be identical. Identical values can stand only once. Inconclusive results and toxic doses are left out.
Tested on: P388 leukemia ip, CD2F1 mice, survival T/C
Assay: NCI In Vivo Anticancer Drug Screen. Data for tumor model P388 Leukemia (intraperitoneal) in CD2F1 (CDF1) mice
Conditions: endpoint: median survival time, higher = longer survival
Procedure, shortened: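 Mice carrying the transplanted tumor received test compound or vehicle. Survival was recorded in each group, and the value is the treated-group measurement divided by that of the vehicle-treated control group.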

[1] = dose: 12.5 mg/kg/injection, schedule: Q01DX009 (ip), vehicle: water
[2] = dose: 25.0 mg/kg/injection, schedule: Q01DX009 (ip), vehicle: water
[3] = dose: 50.0 mg/kg/injection, schedule: Q01DX009 (ip), vehicle: water
[4] = dose: 60.0 mg/kg/injection, schedule: Q01DX005 (ip), vehicle: Klucel (hydroxypropylcellulose) (HPC)
[5] = dose: 100.0 mg/kg/injection, schedule: Q01DX009 (ip), vehicle: water
[6] = dose: 120.0 mg/kg/injection, schedule: Q01DX005 (ip), vehicle: Klucel (hydroxypropylcellulose) (HPC)
[7] = dose: 200.0 mg/kg/injection, schedule: Q01DX009 (ip), vehicle: water
[8] = dose: 240.0 mg/kg/injection, schedule: Q01DX005 (ip), vehicle: Klucel (hydroxypropylcellulose) (HPC)
[9] = dose: 25.0 mg/kg/injection, schedule: Q01DX009 (ip), vehicle: other
[10] = dose: 50.0 mg/kg/injection, schedule: Q01DX009 (ip), vehicle: other
[11] = dose: 100.0 mg/kg/injection, schedule: Q01DX009 (ip), vehicle: other
[12] = dose: 200.0 mg/kg/injection, schedule: Q01DX009 (ip), vehicle: other
[13] = dose: 50.0 mg/kg/injection, schedule: Q01DX009 (ip), vehicle: saline
[14] = dose: 100.0 mg/kg/injection, schedule: Q01DX009 (ip), vehicle: saline
[15] = dose: 50.0 mg/kg/injection, schedule: Q01DX005 (ip), vehicle: Klucel (hydroxypropylcellulose) (HPC)
[16] = dose: 50.0 mg/kg/injection, schedule: Q01DX005 (ip), vehicle: saline with Tween-80
[17] = dose: 12.5 mg/kg/injection, schedule: Q01DX005 (ip), vehicle: Klucel (hydroxypropylcellulose) (HPC)
[18] = dose: 25.0 mg/kg/injection, schedule: Q01DX005 (ip), vehicle: Klucel (hydroxypropylcellulose) (HPC)
[19] = dose: 60.0 mg/kg/injection, schedule: Q01DX005 (ip), vehicle: saline with Tween-80
[20] = dose: 120.0 mg/kg/injection, schedule: Q01DX005 (ip), vehicle: saline with Tween-80
[21] = dose: 240.0 mg/kg/injection, schedule: Q01DX005 (ip), vehicle: saline with Tween-80

Compound: COC1=CC23CCCN2CCc2cc4c(cc2C3C1O)OCO4 (stereo not drawn)
- T/C [1]: 103 % of control
- T/C [2]: 99 % of control
- T/C [3]: 104 % of control
- T/C [4]: 101 % of control
- T/C [5]: 96 % of control
- T/C [6]: 106 % of control
- T/C [7]: 99 % of control
- T/C [8]: 101 % of control

Compound: COc1ccc2cc3[nH]c(=O)cc(O)c3cc2c1OC
- T/C (dose: 12.5 mg/kg/injection, schedule: Q01DX009 (ip), vehicle: other): 96 % of control
- T/C [9]: 106 % of control
- T/C [10]: 101 % of control
- T/C [11]: 89 % of control
- T/C [12]: 89 % of control

Compound: O=C(CCCCO)c1nc2ccccc2s1
- T/C [4]: 98 % of control
- T/C [6]: 102 % of control
- T/C [8]: 95 % of control

Compound: CC(=O)OC1OC(COS(C)(=O)=O)C(OC(C)=O)C(OS(C)(=O)=O)C1OC(C)=O (stereo not drawn)
- T/C [13]: 92 % of control
- T/C [14]: 118 % of control
- T/C (dose: 400.0 mg/kg/injection, schedule: Q01DX009 (ip), vehicle: saline): 88 % of control

Compound: CCCCN1C(=O)/C(=C/c2ccccc2OC)SC1=S
- T/C [15]: 98 % of control
- T/C (dose: 100.0 mg/kg/injection, schedule: Q01DX005 (ip), vehicle: Klucel (hydroxypropylcellulose) (HPC)): 94 % of control

Compound: CC(=O)CC(=O)c1ccc(C)cc1.CC(=O)CC(=O)c1ccc(C)cc1.[Ni]
- T/C (dose: 3.12 mg/kg/injection, schedule: Q01DX005 (ip), vehicle: saline with Tween-80): 97 % of control
- T/C (dose: 6.25 mg/kg/injection, schedule: Q01DX005 (ip), vehicle: saline with Tween-80): 95 % of control
- T/C (dose: 12.5 mg/kg/injection, schedule: Q01DX005 (ip), vehicle: saline with Tween-80): 90 % of control
- T/C (dose: 25.0 mg/kg/injection, schedule: Q04DX002 (ip), vehicle: saline with Tween-80): 95 % of control
- T/C (dose: 25.0 mg/kg/injection, schedule: Q04DX003 (ip), vehicle: saline with Tween-80): 97 % of control
- T/C [16]: 91 % of control
- T/C (dose: 50.0 mg/kg/injection, schedule: Q04DX002 (ip), vehicle: saline with Tween-80): 99 % of control
- T/C (dose: 50.0 mg/kg/injection, schedule: Q04DX003 (ip), vehicle: saline with Tween-80): 101 % of control
- T/C (dose: 100.0 mg/kg/injection, schedule: Q04DX002 (ip), vehicle: saline with Tween-80): 105 % of control
- T/C (dose: 200.0 mg/kg/injection, schedule: Q04DX002 (ip), vehicle: saline with Tween-80): 98 % of control

Compound: C1=C(B2OCCNO2)CCCC1
- T/C (dose: 100.0 mg/kg/injection, schedule: Q01DX001 (ip), vehicle: saline): 101 % of control
- T/C (dose: 200.0 mg/kg/injection, schedule: Q01DX001 (ip), vehicle: saline): 96 % of control
- T/C (dose: 400.0 mg/kg/injection, schedule: Q01DX001 (ip), vehicle: saline): 104 % of control

Compound: COc1ccc(C(=O)O)cc1
- T/C (dose: 100.0 mg/kg/injection, schedule: Q01DX009 (ip), vehicle: saline with Tween-80): 101 % of control
- T/C (dose: 200.0 mg/kg/injection, schedule: Q01DX009 (ip), vehicle: saline with Tween-80): 96 % of control
- T/C (dose: 400.0 mg/kg/injection, schedule: Q01DX009 (ip), vehicle: saline with Tween-80): 109 % of control

Compound: C1CSCCSCCSCCS1
- T/C (dose: 100.0 mg/kg/injection, schedule: Q04DX003 (ip), vehicle: Klucel (hydroxypropylcellulose) (HPC)): 100 % of control
- T/C (dose: 200.0 mg/kg/injection, schedule: Q04DX003 (ip), vehicle: Klucel (hydroxypropylcellulose) (HPC)): 100 % of control
- T/C (dose: 400.0 mg/kg/injection, schedule: Q04DX003 (ip), vehicle: Klucel (hydroxypropylcellulose) (HPC)): 101 % of control

Compound: CN(C)N=Nc1ccc(NC(N)=O)cc1
- T/C (dose: 100.0 mg/kg/injection, schedule: Q04DX003 (ip), vehicle: saline + Tween-80 + alcohol): 154 % of control

Compound: COc1ccc(CC(CO)NC(=O)c2ccccc2)cc1 (stereo not drawn)
- T/C (dose: 100.0 mg/kg/injection, schedule: Q04DX002 (ip), vehicle: Klucel (hydroxypropylcellulose) (HPC)): 101 % of control
- T/C (dose: 200.0 mg/kg/injection, schedule: Q04DX002 (ip), vehicle: Klucel (hydroxypropylcellulose) (HPC)): 108 % of control
- T/C (dose: 400.0 mg/kg/injection, schedule: Q04DX002 (ip), vehicle: Klucel (hydroxypropylcellulose) (HPC)): 94 % of control

Compound: CCN(CC)c1ccc(C(=N)c2ccc(N(CC)CC)cc2)cc1
- T/C [17]: 101 % of control
- T/C [18]: 99 % of control
- T/C [15]: 89 % of control and 90 % of control

Compound: CS/C(=N/S(=O)(=O)c1ccccc1)NNC(=S)Nc1ccc(C(C)C)cc1
- T/C [13]: 94 % of control
- T/C [14]: 97 % of control
- T/C (dose: 200.0 mg/kg/injection, schedule: Q01DX009 (ip), vehicle: saline): 97 % of control

Compound: S=C1CCCCCN1
- T/C [17]: 107 % of control
- T/C [18]: 100 % of control
- T/C [15]: 103 % of control and 104 % of control

Compound: Cc1cc(Br)c2nsnc2c1[N+](=O)[O-]
- T/C [16]: 122 % of control

Compound: CC(C)(CO)NC(=O)c1ccc(Br)cc1
- T/C [9]: 100 % of control
- T/C [10]: 100 % of control
- T/C [11]: 104 % of control
- T/C [12]: 100 % of control
- T/C (dose: 400.0 mg/kg/injection, schedule: Q01DX009 (ip), vehicle: other): 104 % of control

Compound: COc1cc2ccc3cnccc3c2cc1OC
- T/C [1]: 99 % of control
- T/C [2]: 99 % of control
- T/C [3]: 103 % of control
- T/C [5]: 99 % of control
- T/C [7]: 113 % of control

Compound: CCCCCC(=O)c1c(O)cc2c(c1O)C(=O)c1c(O)cc(OC)cc1C2=O
- T/C (dose: 6.25 mg/kg/injection, schedule: Q01DX009 (ip), vehicle: saline with Tween-80): 93 % of control
- T/C (dose: 12.5 mg/kg/injection, schedule: Q01DX009 (ip), vehicle: saline with Tween-80): 93 % of control

Compound: COc1ccc(C(C)c2cc3c(cc2OC(C)O)OCO3)cc1 (stereo not drawn)
- T/C [19]: 92 % of control
- T/C [20]: 94 % of control
- T/C [21]: 97 % of control

Compound: Cc1cc2c(-c3ccccc3)c3cc(C)c(N)cc3nc2cc1N
- T/C (dose: 6.25 mg/kg/injection, schedule: Q01DX005 (ip), vehicle: Klucel (hydroxypropylcellulose) (HPC)): 101 % of control
- T/C [17]: 100 % of control
- T/C [18]: 99 % of control

Compound: O=C(CO)CC(=O)CCC(=O)Nc1cccc([N+](=O)[O-])c1
- T/C [19]: 105 % of control
- T/C [20]: 111 % of control
- T/C [21]: 105 % of control

Compound: Cc1[nH]ccc2c(C)c3nc4ccc(O)cc4c3cc12
- T/C (dose: 40.0 mg/kg/injection, schedule: Q04DX002 (ip), vehicle: water): 157 % of control

Compound: COC1OC(COC(=O)c2ccccc2)C(=O)C(OC(=O)c2ccccc2)C1N(O)c1ccccc1 (stereo not drawn)
- T/C (dose: 7.5 mg/kg/injection, schedule: Q01DX005 (ip), vehicle: Klucel (hydroxypropylcellulose) (HPC)): 99 % of control
- T/C (dose: 15.0 mg/kg/injection, schedule: Q01DX005 (ip), vehicle: Klucel (hydroxypropylcellulose) (HPC)): 104 % of control
- T/C (dose: 30.0 mg/kg/injection, schedule: Q01DX005 (ip), vehicle: Klucel (hydroxypropylcellulose) (HPC)): 95 % of control

Compound: C1CCC2OCCOCCOCCOCCOC2C1 (stereo not drawn)
- T/C (dose: 50.0 mg/kg/injection, schedule: Q01DX005 (ip), vehicle: saline): 95 % of control
- T/C (dose: 100.0 mg/kg/injection, schedule: Q01DX005 (ip), vehicle: saline): 95 % of control

Compound: Cc1ccc2c3c(c(=O)oc2c1)[C@H](C)C[C@@](C)(CO)O3
- T/C [19]: 113 % of control
- T/C [20]: 107 % of control
- T/C [21]: 100 % of control

Compound: CC12CC(C(=O)O)C(C)(C1=O)C(c1ccccc1)=C2c1ccccc1 (stereo not drawn)
- T/C (dose: 25.0 mg/kg/injection, schedule: Q01DX009 (ip), vehicle: Klucel (hydroxypropylcellulose) (HPC)): 92 % of control
- T/C (dose: 50.0 mg/kg/injection, schedule: Q01DX009 (ip), vehicle: Klucel (hydroxypropylcellulose) (HPC)): 93 % of control
- T/C (dose: 100.0 mg/kg/injection, schedule: Q01DX009 (ip), vehicle: Klucel (hydroxypropylcellulose) (HPC)): 97 % of control
- T/C (dose: 200.0 mg/kg/injection, schedule: Q01DX009 (ip), vehicle: Klucel (hydroxypropylcellulose) (HPC)): 94 % of control
